Starred links: 1 amine or outer side, 2 acyl side, 3 side chain; linkers in the order of their positions; H or OH if unused. Non-standard residues stand in square brackets, D forms with d. Residues, ends and D or L forms follow the SMILES beside them. *: point of attachment. X6 = O=C(C1[C@H]2CC[C@H](C2)N1[*:1])[*:2]; X5 = NC12CC3CC(C1)CC(CC(=O)*)(C3)C2; dBta = N[C@H](Cc1csc2ccccc12)C(=O)O; dCit = NC(=O)NCCC[C@@H](N)C(=O)O; dTle = CC(C)(C)[C@@H](N)C(=O)O; Tle = CC(C)(C)[C@H](N)C(=O)O; dNle = CCCC[C@@H](N)C(=O)O; Nle = CCCC[C@H](N)C(=O)O; Api = NC1(C(=O)O)CCNCC1; X4 = O=C([C@H]1CNCCO1)*
What follows are molecules tested against GHSR-1a (Homo sapiens (Human), UniProt Q92847) (assay: Agonistic activity for GHSR-1a, FLIPR calcium assay). Conditions: agonist activity assay, Flp In-CHO-GHSR Stable Pool cells, FLIPR calcium 6 kit; read-out: The activity (IC50) of polypeptide compounds for GHSR-1a.
Sequence of GHSR-1a (Q92847 whole entry): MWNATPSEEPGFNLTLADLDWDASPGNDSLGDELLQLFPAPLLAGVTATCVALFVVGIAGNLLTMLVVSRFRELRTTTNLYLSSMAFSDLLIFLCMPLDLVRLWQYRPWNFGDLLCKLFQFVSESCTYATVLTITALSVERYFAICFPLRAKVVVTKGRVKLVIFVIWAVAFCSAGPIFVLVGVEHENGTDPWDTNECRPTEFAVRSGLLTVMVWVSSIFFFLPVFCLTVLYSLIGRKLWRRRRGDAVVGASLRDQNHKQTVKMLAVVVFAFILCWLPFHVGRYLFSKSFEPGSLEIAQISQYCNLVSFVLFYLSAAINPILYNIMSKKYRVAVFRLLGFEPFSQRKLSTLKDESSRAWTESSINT
Format: cell-based
Source text: The use of recombinant expression of GHSR provides several advantages; for example, the receptor can be expressed in a determined cell system, so that it is easier to distinguish between the reactions of the compounds with GHSR and the reactions with other receptors. For example, cell lines such as HEK293, COS7 and CHO that […] can be used to express GHSR, and the same cell lines without expression vectors are used as controls.
The activity of GHSR-1a can be measured using different techniques, for example, by detecting the change in the intracellular conformation of GHSR, the change in G-protein coupling activity, and/or the change in intracellular messengers. Techniques such as measuring intracellular Ca^2+ are preferably used to measure the activity of GHSR-1a. Examples of techniques known in the art that can be used to measure Ca^2+ include the use of FLIPR® calcium ion assay kits, among others. The FLIPR® calcium ion assay kits use a calcium ion sensitive indicator and a masking dye to ensure that a researcher carries out high-sensitivity fluorescent screening for G protein-coupled receptors, ion channels and other calcium ion sensitive targets. This experiment used FLIPR calcium 6 assay kits and FLIPR calcium 6-QF assay kits.
• a) Cell line: Flp In-CHO-GHSR Stable Pool; • b) Complete medium: F12K+10% fetal bovine serum+1×penicillin-streptomycin (PS)+600 μg/mL hygromycin B; • c) Cell seeding medium: F12K+10% fetal bovine serum. • d) Assay buffer: 1× HBSS+20 mM HEPES. • e) […] component A: Assay buffer and component A were left at room temperature (RT), 10 mL of buffer was added to component A, and the mixture was vortexed for 1-2 min and stored at −20° C.
• a) Compound stock solutions: the powders from in-house synthesis were made into 10 mM stock solutions in DMSO according to the standard protocol. • b) Compound storage: all compounds in DMSO were stored in room temperature desiccators for short-term storage (at most 4 months). The remaining compounds were left at −20 ° C. for long-term storage.
• a) Flp In-CHO-GHSR Stable Pool cells were cultured in complete medium. • b) The cells were placed in […] cell seeding medium in a 384-well cell culture plate (Corning, 3764) at 7k cells/well and cultured overnight at 37° C. with 5% CO2. • c) 20× component A was thawed at room temperature, diluted with assay buffer to 2×, and left at RT. • d) The Petri dish was taken out of the incubator and equilibrated at room temperature for 10 min. The medium was changed to […]. After the final wash, 20 μL of buffer was kept in each well, 20 μL of 2× component A was then added to each well, and the plate was incubated at 37° C. for 3-5 s. • e) 10 μL of 5× compound was added to the 384-well cell culture plate, and data collection was immediately performed using FLIPR Tetra.
• 1) Z′ factor=1−3×(SDMax+SDMin)/(MeanMax−MeanMin); • 2) CVMax=(SDMax/MeanMax)×100%; • 3) CVMin=(SDMin/MeanMin)×100%; • 4) S/B=Singal/Background; • 5) Calculation formula for IC50: • Y=Bottom+(Top−Bottom)/(1+10^((LogIC50−X)×HillSlope)) • X: log value of compound concentration; Y: Activation % or Inhibition %

| IC50 [nM] | Structure (SMILES) |
| --- | --- |
| 150 | NC(=O)NCCC[C@@H](N)C(=O)N[C@H](Cc1csc2ccccc12)C(=O)N[C@H](Cc1c[nH]c2ccccc12)C(=O)N[C@@H](Cc1ccccc1)C(=O)NC1(C(N)=O)CCNCC1 [Compound 1] (H-[dCit][dBta][dW]F[Api]-NH2) |
| 1120 | NCCCC[C@@H](N)C(=O)N[C@H](Cc1csc2ccccc12)C(=O)N[C@H](Cc1c[nH]c2ccccc12)C(=O)N[C@@H](Cc1ccccc1)C(=O)NC1(C(N)=O)CCNCC1 [Compound 4] (H-[dK][dBta][dW]F[Api]-NH2) |
| > 1000 | NCCCC[C@H](N)C(=O)N[C@H](Cc1csc2ccccc12)C(=O)N[C@H](Cc1c[nH]c2ccccc12)C(=O)N[C@@H](Cc1ccccc1)C(=O)NC1(C(N)=O)CCNCC1 [Compound 5] (H-K[dBta][dW]F[Api]-NH2) |
| > 1000 | CC(=O)N[C@H](CCCNC(N)=O)C(=O)N[C@H](Cc1csc2ccccc12)C(=O)N[C@H](Cc1c[nH]c2ccccc12)C(=O)N[C@@H](Cc1ccccc1)C(=O)NC1(C(N)=O)CCNCC1 [Compound 6] (Ac-[dCit][dBta][dW]F[Api]-NH2) |
| 935 | CC(=O)N[C@H](CCCCN)C(=O)N[C@H](Cc1csc2ccccc12)C(=O)N[C@H](Cc1c[nH]c2ccccc12)C(=O)N[C@@H](Cc1ccccc1)C(=O)NC1(C(N)=O)CCNCC1 [Compound 7] (Ac-[dK][dBta][dW]F[Api]-NH2) |
| > 1000 | CC(=O)N[C@@H](CCCCN)C(=O)N[C@H](Cc1csc2ccccc12)C(=O)N[C@H](Cc1c[nH]c2ccccc12)C(=O)N[C@@H](Cc1ccccc1)C(=O)NC1(C(N)=O)CCNCC1 [Compound 8] (Ac-K[dBta][dW]F[Api]-NH2) |
| 101 | N=C(N)NCCC[C@@H](N)C(=O)N[C@H](Cc1csc2ccccc12)C(=O)N[C@H](Cc1c[nH]c2ccccc12)C(=O)N[C@@H](Cc1ccccc1)C(=O)NC1(C(N)=O)CCNCC1 [Compound 9] (H-[dR][dBta][dW]F[Api]-NH2) |
| 223 | CC(=O)NCCCC[C@@H](N)C(=O)N[C@H](Cc1csc2ccccc12)C(=O)N[C@H](Cc1c[nH]c2ccccc12)C(=O)N[C@@H](Cc1ccccc1)C(=O)NC1(C(N)=O)CCNCC1 [Compound 10] (H-[dK](Ac)[dBta][dW]F[Api]-NH2) |
| 31.1 | CC(C)(C)[C@@H](N)C(=O)N[C@H](Cc1csc2ccccc12)C(=O)N[C@H](Cc1c[nH]c2ccccc12)C(=O)N[C@@H](Cc1ccccc1)C(=O)NC1(C(N)=O)CCNCC1 [Compound 17] (H-[dTle][dBta][dW]F[Api]-NH2) |
| 23.5 | CC(C)(C)[C@H](N)C(=O)N[C@H](Cc1csc2ccccc12)C(=O)N[C@H](Cc1c[nH]c2ccccc12)C(=O)N[C@@H](Cc1ccccc1)C(=O)NC1(C(N)=O)CCNCC1 [Compound 18] (H-[Tle][dBta][dW]F[Api]-NH2) |
| 42.6 | CCCC[C@@H](N)C(=O)N[C@H](Cc1csc2ccccc12)C(=O)N[C@H](Cc1c[nH]c2ccccc12)C(=O)N[C@@H](Cc1ccccc1)C(=O)NC1(C(N)=O)CCNCC1 [Compound 19] (H-[dNle][dBta][dW]F[Api]-NH2) |
| 57.4 | CCCC[C@H](N)C(=O)N[C@H](Cc1csc2ccccc12)C(=O)N[C@H](Cc1c[nH]c2ccccc12)C(=O)N[C@@H](Cc1ccccc1)C(=O)NC1(C(N)=O)CCNCC1 [Compound 20] (H-[Nle][dBta][dW]F[Api]-NH2) |
| 32.8 | NC(=O)C1(NC(=O)[C@H](Cc2ccccc2)NC(=O)[C@@H](Cc2c[nH]c3ccccc23)NC(=O)[C@@H](Cc2csc3ccccc23)NC(=O)[C@H]2CNCCO2)CCNCC1 [Compound 27] (X4-[dBta][dW]F[Api]-NH2) |
| 54.1 | NC(=O)C1(NC(=O)[C@H](Cc2ccccc2)NC(=O)[C@@H](Cc2c[nH]c3ccccc23)NC(=O)[C@@H](Cc2csc3ccccc23)NC(=O)CC23CC4CC(CC(N)(C4)C2)C3)CCNCC1 [Compound 28] (X5-[dBta][dW]F[Api]-NH2) |
| 13.3 | NC(=O)C1(NC(=O)[C@H](Cc2ccccc2)NC(=O)[C@@H](Cc2c[nH]c3ccccc23)NC(=O)[C@@H](Cc2csc3ccccc23)NC(=O)C2N[C@@H]3CC[C@H]2C3)CCNCC1 (stereo partly drawn) [Compound 29] (H-[X6][dBta][dW]F[Api]-NH2) |
| 20.8 | NCCCC[C@@H](NC(=O)[C@H](Cc1ccccc1)NC(=O)[C@@H](Cc1c[nH]c2ccccc12)NC(=O)[C@@H](Cc1csc2ccccc12)NC(=O)[C@H](N)CCCNC(N)=O)C(N)=O [Compound 31] (H-[dCit][dBta][dW]F[dK]-NH2) |
| 78.4 | NCCCC[C@@H](N)C(=O)N[C@H](Cc1csc2ccccc12)C(=O)N[C@H](Cc1c[nH]c2ccccc12)C(=O)N[C@@H](Cc1ccccc1)C(=O)N[C@H](CCCCN)C(N)=O [Compound 34] (H-[dK][dBta][dW]F[dK]-NH2) |
| 102 | NCCCC[C@H](N)C(=O)N[C@H](Cc1csc2ccccc12)C(=O)N[C@H](Cc1c[nH]c2ccccc12)C(=O)N[C@@H](Cc1ccccc1)C(=O)N[C@H](CCCCN)C(N)=O [Compound 35] (H-K[dBta][dW]F[dK]-NH2) |
| 122 | CC(=O)N[C@H](CCCNC(N)=O)C(=O)N[C@H](Cc1csc2ccccc12)C(=O)N[C@H](Cc1c[nH]c2ccccc12)C(=O)N[C@@H](Cc1ccccc1)C(=O)N[C@H](CCCCN)C(N)=O [Compound 36] (Ac-[dCit][dBta][dW]F[dK]-NH2) |
| 291 | CC(=O)N[C@H](CCCCN)C(=O)N[C@H](Cc1csc2ccccc12)C(=O)N[C@H](Cc1c[nH]c2ccccc12)C(=O)N[C@@H](Cc1ccccc1)C(=O)N[C@H](CCCCN)C(N)=O [Compound 37] (Ac-[dK][dBta][dW]F[dK]-NH2) |
| 400 | CC(=O)N[C@@H](CCCCN)C(=O)N[C@H](Cc1csc2ccccc12)C(=O)N[C@H](Cc1c[nH]c2ccccc12)C(=O)N[C@@H](Cc1ccccc1)C(=O)N[C@H](CCCCN)C(N)=O [Compound 38] (Ac-K[dBta][dW]F[dK]-NH2) |
| 272 | N=C(N)NCCC[C@@H](N)C(=O)N[C@H](Cc1csc2ccccc12)C(=O)N[C@H](Cc1c[nH]c2ccccc12)C(=O)N[C@@H](Cc1ccccc1)C(=O)N[C@H](CCCCN)C(N)=O [Compound 39] (H-[dR][dBta][dW]F[dK]-NH2) |
| 510 | CC(=O)NCCCC[C@@H](N)C(=O)N[C@H](Cc1csc2ccccc12)C(=O)N[C@H](Cc1c[nH]c2ccccc12)C(=O)N[C@@H](Cc1ccccc1)C(=O)N[C@H](CCCCN)C(N)=O [Compound 40] (H-[dK](Ac)[dBta][dW]F[dK]-NH2) |
| 31.4 | NCCCC[C@@H](NC(=O)[C@H](Cc1ccccc1)NC(=O)[C@@H](Cc1c[nH]c2ccccc12)NC(=O)[C@@H](Cc1csc2ccccc12)NC(=O)CN)C(N)=O [Compound 41] (H-G[dBta][dW]F[dK]-NH2) |
| 40.1 | C[C@@H](N)C(=O)N[C@H](Cc1csc2ccccc12)C(=O)N[C@H](Cc1c[nH]c2ccccc12)C(=O)N[C@@H](Cc1ccccc1)C(=O)N[C@H](CCCCN)C(N)=O [Compound 42] (H-[dA][dBta][dW]F[dK]-NH2) |
| 22.3 | CC(C)[C@@H](N)C(=O)N[C@H](Cc1csc2ccccc12)C(=O)N[C@H](Cc1c[nH]c2ccccc12)C(=O)N[C@@H](Cc1ccccc1)C(=O)N[C@H](CCCCN)C(N)=O [Compound 43] (H-[dV][dBta][dW]F[dK]-NH2) |
| 13.5 | CC(C)C[C@@H](N)C(=O)N[C@H](Cc1csc2ccccc12)C(=O)N[C@H](Cc1c[nH]c2ccccc12)C(=O)N[C@@H](Cc1ccccc1)C(=O)N[C@H](CCCCN)C(N)=O [Compound 44] (H-[dL][dBta][dW]F[dK]-NH2) |
